Laboratory results published in publication PMC8498988, “Scaffold Hybridization Strategy Leads to the Discovery of Dopamine D3 Receptor-Selective or Multitarget Bitopic Ligands Potentially Useful for Central Nervous System Disorders” (ACS Chemical Neuroscience, 2021).

What was measured:
D4R = target: T1, D4R (Homo sapiens, UniProt P21917); test: Radioligand competition binding at human D4R ([3H]N-methylspiperone, HEK293 membranes); set-up: expressed in transfected cells; host or cells: HEK293; conditions: HEK 293 cells expressing hD4R, read-out: Ki ± SEM, D4R
T1 sequence (P21917 1-419): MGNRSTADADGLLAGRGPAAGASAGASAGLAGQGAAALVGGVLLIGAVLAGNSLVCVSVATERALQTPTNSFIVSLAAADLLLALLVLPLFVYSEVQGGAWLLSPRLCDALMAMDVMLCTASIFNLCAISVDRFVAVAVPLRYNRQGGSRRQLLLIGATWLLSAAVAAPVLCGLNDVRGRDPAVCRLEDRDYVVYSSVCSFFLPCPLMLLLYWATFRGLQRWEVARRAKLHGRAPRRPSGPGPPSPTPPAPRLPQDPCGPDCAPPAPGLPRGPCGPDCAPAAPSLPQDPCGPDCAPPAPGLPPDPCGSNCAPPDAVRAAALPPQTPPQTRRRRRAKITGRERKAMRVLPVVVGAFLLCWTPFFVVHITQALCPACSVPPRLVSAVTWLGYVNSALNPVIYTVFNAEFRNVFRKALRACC
Procedure: (§1) The novel hybrid derivatives 3–11 were tested at hD2R, hD3R, or hD4R stably expressed in HEK293 cells by competition binding assays, using [^3H]N-methylspiperone as the radioligand, to evaluate their D2-like affinity and subtype selectivity, following the previously reported procedures.[41],[45],[46]
(§2) Binding at dopamine D2-like receptors was determined using previously described methods.[41],[45],[46] Membranes were prepared from HEK293 cells stably expressing human D2, D3, or D4, grown in a 50:50 mix of Dulbecco’s minimal essential medium (DMEM) and Ham’s F12 culture media, supplemented with 20 mM HEPES, 2 mM L-glutamine, 0.1 mM nonessential amino acids, 1× antibiotic/antimycotic, 10% heat-inactivated fetal bovine serum, and 200 μg/mL hygromycin (Life Technologies, Grand Island, NY) and kept in an incubator at 37 °C and 5% CO2. Upon reaching 80–90% confluency, the cells were harvested using premixed Earle’s Balanced Salt Solution (EBSS) with 5 μM EDTA (Life Technologies) and centrifuged at 3000 rpm for 10 min at 21 °C. The supernatant was removed, and the pellet was resuspended in 10 mL hypotonic lysis buffer (5 mM MgCl2, 5 mM Tris, pH 7.4 at 4 °C) and centrifuged at 20,000 rpm for 30 min at 4 °C. The pellet was then resuspended in fresh EBSS buffer made from 8.7 g/L Earle’s Balanced Salts without phenol red (US Biological, Salem, MA), 2.2 g/L sodium bicarbonate, pH to 7.4. A Bradford protein assay (Bio-Rad, Hercules, CA) was used to determine the protein concentration, and membranes were diluted to 500 μg/mL and stored at −80 °C for later use. Radioligand competition binding experiments were conducted using thawed membranes. Test compounds were freshly dissolved in 30% DMSO and 70% H2O to a stock concentration of 100 μM. To assist the solubilization of free-base compounds, 10 μL of glacial acetic acid was added along with DMSO. Each test compound was then diluted into 13 half-log serial dilutions using 30% DMSO vehicle; the final test concentrations ranged from 10 μM to 10 pM. The previously frozen membranes were diluted in fresh EBSS to a 100 μg/mL (for D2 or D3) or 200 μg/mL (D4) stock for binding. Radioligand competition experiments were conducted in glass tubes containing 300 μL of fresh EBSS buffer, 50 μL of diluted test compound, 100 μL of membranes (10 μg of total protein for D2 or D3 and 20 μg of total protein for D4), and 50 μL of [^3H]N-methylspiperone (0.4 nM final concentration; PerkinElmer). Nonspecific binding was determined using 10 μM butaclamol (Sigma-Aldrich, St. Louis, MO), and total binding was determined with the 30% DMSO vehicle. All compound dilutions were tested in triplicate and the reaction was incubated for 1 h at room temperature. The reaction was terminated by filtration through Whatman GF/B filters, presoaked for 1 h in 0.5% polyethylenimine, using a Brandel R48 filtering manifold (Brandel Instruments, Gaithersburg, MD). The filters were washed three times with 3 mL of ice-cold EBSS buffer and transferred to scintillation vials. CytoScint liquid scintillation cocktail (3 mL, MP Biomedicals, Solon, OH) was added, and vials were counted using a PerkinElmer Tri-Carb 2910 TR liquid scintillation counter (Waltham, MA).

human 5-HT1AR = target: T2, human 5-HT1AR (Homo sapiens, UniProt P08908); test: Radioligand binding assay at human 5-HT1AR ([3H]8-OH-DPAT, HeLa cells); conditions: HeLa cells expressing h5-HT1AR, read-out: Ki ± SEM, 5-HT1AR
T2 construct: expressed in transfected cells; host or cells: HeLa
T2 sequence (P08908 1-422): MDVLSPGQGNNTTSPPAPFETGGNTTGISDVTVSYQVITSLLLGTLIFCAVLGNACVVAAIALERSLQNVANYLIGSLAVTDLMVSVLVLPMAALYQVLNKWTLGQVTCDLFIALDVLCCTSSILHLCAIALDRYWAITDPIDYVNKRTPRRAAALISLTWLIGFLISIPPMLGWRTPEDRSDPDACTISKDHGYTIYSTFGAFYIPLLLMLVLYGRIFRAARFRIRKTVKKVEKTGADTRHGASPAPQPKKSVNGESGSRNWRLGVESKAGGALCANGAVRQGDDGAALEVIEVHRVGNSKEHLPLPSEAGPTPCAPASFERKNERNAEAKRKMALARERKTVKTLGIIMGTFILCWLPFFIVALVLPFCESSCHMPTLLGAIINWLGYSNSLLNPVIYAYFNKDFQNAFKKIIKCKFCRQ
Procedure: A human cell line (HeLa) stably transfected with genomic clone G-21 coding for the human 5-HT1AR was used. Cells were grown as monolayers in Dulbecco’s modified Eagle’s medium supplemented with 10% fetal calf serum and gentamycin (100 μg/mL) under 5% CO2 at 37 °C. Cells were detached from the growth flask at 95% confluency by a cell scraper and were lysed in ice-cold Tris (5 mM) and EDTA buffer (5 mM, pH 7.4). Homogenates were centrifuged for 20 min at 40000g, and pellets were resuspended in a small volume of ice-cold Tris/EDTA buffer (above) and immediately frozen and stored at -70 °C until use. On the day of experiment, cell membranes (80–90 μg of protein) were resuspended in binding buffer (50 mM Tris, 2.5 mM MgCl2, and 10 mM pargyline, pH 7.4). Membranes were incubated in a final volume of 0.32 mL for 30 min at 30 °C with 1 nM [^3H]8-OH-DPAT in the absence or presence of various concentrations of competing drugs (1 pM to 1 μM); each experimental condition was performed in triplicate. Nonspecific binding was determined in the presence of 10 μM 5-HT.

D2R = D2R (Homo sapiens, UniProt P14416); test: Radioligand competition binding at human D2R ([3H]N-methylspiperone, HEK293 membranes); set-up: expressed in transfected cells; host or cells: HEK293; conditions: HEK 293 cells expressing hD2R, read-out: Ki ± SEM, D2R
Procedure: as §1, §2

Sequence of D2R (P14416 whole entry): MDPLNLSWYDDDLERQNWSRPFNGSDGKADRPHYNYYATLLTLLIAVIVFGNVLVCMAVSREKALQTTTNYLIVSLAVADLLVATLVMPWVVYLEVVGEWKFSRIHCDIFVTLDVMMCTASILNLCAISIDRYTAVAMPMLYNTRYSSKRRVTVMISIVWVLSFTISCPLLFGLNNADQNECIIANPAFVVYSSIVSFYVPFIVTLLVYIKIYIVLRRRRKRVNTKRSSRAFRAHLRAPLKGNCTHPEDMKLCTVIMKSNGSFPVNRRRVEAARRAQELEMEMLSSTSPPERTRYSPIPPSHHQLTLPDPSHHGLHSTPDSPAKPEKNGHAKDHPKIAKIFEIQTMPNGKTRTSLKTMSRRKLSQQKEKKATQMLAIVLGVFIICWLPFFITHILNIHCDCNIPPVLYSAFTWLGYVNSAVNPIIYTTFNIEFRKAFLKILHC

Row | SMILES | Ki (D4R) | Ki (human 5-HT1AR) | Ki (D2R)
1 | O=C(NCCCCN1CCN(c2cccc(Cl)c2Cl)CC1)C1COC(c2ccccc2)(c2ccccc2)CO1 (stereo not drawn) [compound 6, N-(4-(4-(2,3-Dichlorophenyl)piperazin-1-yl)butyl)-5,5-diphenyl-1,4-dioxane-2-carboxamide] | 54.6 ± 7.3 nM | 9.1 ± 0.97 nM | 28.7 ± 5.4 nM
2 | O=C(NCCCCN1CCN(c2cccc(Cl)c2Cl)CC1)C1COc2ccccc2O1 (stereo not drawn) [compound 9, N-(4-(4-(2,3-Dichlorophenyl)piperazin-1-yl)butyl)-2,3-dihydrobenzo[b][1,4]dioxine-2-carboxamide] | 74.7 ± 24.5 nM | 23.8 ± 5.2 nM | 46.4 ± 5.9 nM
3 | O=C(NCCCCN1CCN(c2cccc(Cl)c2Cl)CC1)C1COCC(c2ccccc2)(c2ccccc2)O1 (stereo not drawn) [compound 3, N-(4-(4-(2,3-Dichlorophenyl)piperazin-1-yl)butyl)-6,6-diphenyl-1,4-dioxane-2-carboxamide] | 1350 ± 449 nM | 288 ± 15 nM | 342 ± 105 nM
